How the values were obtained:
ASPC1 = assay: cells; conditions: Homo sapiens, ASPC1, 72 h
DND41 = assay: Cell viability, ATPlite 48 hours, DND41; type: cell-based; conditions: DND41 cells
Experimental: ATP content was measured as a surrogate for cellular viability using ATPlite (Promega).

NCI-H460 = assay: cells; conditions: Homo sapiens, NCI-H460, 72 h

Cc1sc2c(c1C)C(c1ccc(Cl)cc1)=N[C@@H](CC(=O)NCCCCCCCCNC(=O)COc1cccc3c1C(=O)N(C1CCC(=O)NC1=O)C3=O)c1nnc(C)n1-2 (some centres unmarked) [dBET6]
Emax (ASPC1; read-out: Emax (%) ASPC1): 50.4% | IC50 (ASPC1; read-out: IC50 (nM) ASPC1): 1460 nM | IC50 (DND41): 34.4 nM | Emax (NCI-H460; read-out: Emax (%) NCI-H460): 34.4% | IC50 (NCI-H460; read-out: IC50 (nM) NCI-H460): 438 nM

Source: patent US10464925B2, “Methods to induce targeted protein degradation through bifunctional molecules” (Dana-Farber Cancer Institute, Inc., priority 2015, dated 2019)
